{"source": "paper PMC3028607", "test": "SmI2-mediated 8-endo-trig ketyl-alkene radical cyclisation (C-C bond between ketone carbon and distal styrene carbon); SmI2 2.2 equiv, HMPA 18 equiv, t-BuOH 2 equiv; substrate added over 2 h, then 16 h", "details": "THF, 15.0 mM, 22.0 °C", "data": [{"smiles": "COC(=O)[C@@H]1Cc2ccccc2CC(C)C2(O)CCCC[C@@H]12", "note": "(stereo partly shown)", "values": [{"measurement": "ring closure, isolated yield", "setting": "from C/C=C/c1ccccc1C[C@@H](C(=O)OC)[C@@H]1CCCCC1=O, 8-membered ring", "result": 11, "unit": "%"}]}, {"smiles": "COC(=O)C1Cc2ccccc2C(C)CC(C)(O)C1", "note": "(stereo not shown) [4 (to 9 40% + 10 38%)]", "values": [{"measurement": "ring closure, isolated yield", "setting": "from C=C(C)c1ccccc1CC(CC(C)=O)C(=O)OC, 8-membered ring", "result": 78, "unit": "%"}]}, {"smiles": "COC(=O)[C@@H]1Cc2ccccc2CCC2(O)CCCCC[C@@H]12", "note": "(stereo partly shown) [5a (to 6; 23% SM recovered)]", "values": [{"measurement": "ring closure, isolated yield", "setting": "from C=Cc1ccccc1C[C@@H](C(=O)OC)[C@@H]1CCCCCC1=O, 8-membered ring", "result": 42, "unit": "%"}]}, {"smiles": "COC(=O)[C@@H]1Cc2ccccc2CCC2(O)CCCCC[C@H]12", "note": "(stereo partly shown) [5b (no product; 62% SM recovered)]", "values": [{"measurement": "ring closure, isolated yield", "setting": "from C=Cc1ccccc1C[C@@H](C(=O)OC)[C@H]1CCCCCC1=O, 8-membered ring", "result": 0, "unit": "%"}]}, {"smiles": "COC(=O)[C@@H]1Cc2ccccc2C(C)CC2(O)CCCC[C@@H]12", "note": "(stereo partly shown) [7a (to 8)]", "values": [{"measurement": "ring closure, isolated yield", "setting": "from C=C(C)c1ccccc1C[C@@H](C(=O)OC)[C@@H]1CCCCC1=O, 8-membered ring", "result": 63, "unit": "%"}]}, {"smiles": "COC(=O)C1Cc2ccccc2C(C)CC(O)(C(C)C)C1", "note": "(stereo not shown) [11 (to 12 54% + 13 28%)]", "values": [{"measurement": "ring closure, isolated yield", "setting": "from C=C(C)c1ccccc1CC(CC(=O)C(C)C)C(=O)OC, 8-membered ring", "result": 82, "unit": "%"}]}, {"smiles": "COC(=O)C1Cc2ccccc2C(C)CC(O)(C(C)C)C1(C)C", "note": "(stereo not shown) [14 (only fragmentation 15, 58%)]", "values": [{"measurement": "ring closure, isolated yield", "setting": "from C=C(C)c1ccccc1CC(C(=O)OC)C(C)(C)C(=O)C(C)C, 8-membered ring", "result": 0, "unit": "%"}]}, {"smiles": "COC(=O)C1Cc2ccccc2C(c2ccccc2)CC(O)(C(C)C)C1", "note": "(stereo not shown) [16 (to 17a 37% + 17b 22%)]", "values": [{"measurement": "ring closure, isolated yield", "setting": "from C=C(c1ccccc1)c1ccccc1CC(CC(=O)C(C)C)C(=O)OC, 8-membered ring", "result": 59, "unit": "%"}]}, {"smiles": "COC(=O)C1Cc2ccccc2CC(C)C(C)(O)C1", "note": "(stereo not shown) [18 (to 19; 20% ketyl-aryl product 20)]", "values": [{"measurement": "ring closure, isolated yield", "setting": "from C/C=C/c1ccccc1CC(CC(C)=O)C(=O)OC, 8-membered ring", "result": 54, "unit": "%"}]}, {"smiles": "CCC1(O)CC(C(=O)OC)Cc2ccccc2CC1C", "note": "(stereo not shown) [21 (to 22; 6% fragmentation 23)]", "values": [{"measurement": "ring closure, isolated yield", "setting": "from C/C=C/c1ccccc1CC(CC(=O)CC)C(=O)OC, 8-membered ring", "result": 56, "unit": "%"}]}, {"smiles": "COC(=O)C1Cc2ccccc2CC(C)C(O)(C(C)C)C1", "note": "(stereo not shown) [24 (to 25)]", "values": [{"measurement": "ring closure, isolated yield", "setting": "from C/C=C/c1ccccc1CC(CC(=O)C(C)C)C(=O)OC, 8-membered ring", "result": 63, "unit": "%"}]}, {"smiles": "COC(=O)[C@@H]1Cc2ccccc2CC(C)C2(O)CCCC[C@H]12", "note": "(stereo partly shown) [26b (to lactone 29; 27% fragmentation 23; 40% SM)]", "values": [{"measurement": "ring closure, isolated yield", "setting": "from C/C=C/c1ccccc1C[C@@H](C(=O)OC)[C@H]1CCCCC1=O, 8-membered ring", "result": 9, "unit": "%"}]}, {"smiles": "COC(=O)C1Cc2ccccc2CC(C)C(O)(C(C)C)C1", "note": "(stereo not shown) [30 (to 31; 31% fragmentation 32; 32% SM)]", "values": [{"measurement": "ring closure, isolated yield", "setting": "from C/C=C\\c1ccccc1CC(CC(=O)C(C)C)C(=O)OC, 8-membered ring", "result": 8, "unit": "%"}]}, {"smiles": "COC(=O)C1Cc2ccccc2CC(C2CC2)C(O)(C(C)C)C1", "note": "(stereo not shown) [33 (to 34; 47% fragmentation 35)]", "values": [{"measurement": "ring closure, isolated yield", "setting": "from COC(=O)C(CC(=O)C(C)C)Cc1ccccc1/C=C/C1CC1, 8-membered ring", "result": 24, "unit": "%"}]}, {"smiles": "COC(=O)C1Cc2ccccc2CC(c2ccccc2)C(O)(C(C)C)C1", "note": "(stereo not shown) [36 (to 37; 20% SM)]", "values": [{"measurement": "ring closure, isolated yield", "setting": "from COC(=O)C(CC(=O)C(C)C)Cc1ccccc1/C=C/c1ccccc1, 8-membered ring", "result": 47, "unit": "%"}]}, {"smiles": "COC(=O)[C@@H]1Cc2ccccc2CC(c2ccccc2)C2(O)CCCC[C@@H]12", "note": "(stereo partly drawn) [38a (no 8-ring; 7-exo product 39, 44%)]", "values": [{"measurement": "ring closure, isolated yield", "setting": "from COC(=O)[C@H](Cc1ccccc1/C=C/c1ccccc1)[C@@H]1CCCCC1=O, 8-membered ring", "result": 0, "unit": "%"}]}, {"smiles": "COC(=O)[C@@H]1Cc2ccccc2CC(c2ccccc2)C2(O)CCCC[C@H]12", "note": "(stereo partly drawn) [38b (no 8-ring; 7-exo lactone 40, 63%)]", "values": [{"measurement": "ring closure, isolated yield", "setting": "from COC(=O)[C@H](Cc1ccccc1/C=C/c1ccccc1)[C@H]1CCCCC1=O, 8-membered ring", "result": 0, "unit": "%"}]}, {"smiles": "COC(=O)C1Cc2ccccc2CC(C)(C)C(C)(O)C1", "note": "(stereo not shown) [41 (no 8-ring; ketyl-aryl 42 14% + 43 7%)]", "values": [{"measurement": "ring closure, isolated yield", "setting": "from COC(=O)C(CC(C)=O)Cc1ccccc1C=C(C)C, 8-membered ring", "result": 0, "unit": "%"}]}, {"smiles": "COC(=O)C1Cc2ccccc2CC(C)C(O)(C(C)C)C1(C)C", "note": "(stereo not shown) [(E)-1-propenyl analogue of 14 (only fragmentation)]", "values": [{"measurement": "ring closure, isolated yield", "setting": "from C/C=C/c1ccccc1CC(C(=O)OC)C(C)(C)C(=O)C(C)C, 8-membered ring", "result": 0, "unit": "%"}]}]}
